One test has as its system SARS-CoV pseudovirus. It is filed as cell-based.
The test system of another test is SARS-CoV-2 pseudovirus. It counts as cell-based.

For ACE2-Fc, the “inhibition of SARS-CoV pseudovirus entry” value in the test on SARS-CoV pseudovirus was “inhibited”. For the same substance, in the test with SARS-CoV-2 pseudovirus, the “inhibition of SARS-CoV-2 pseudovirus entry” value was “inhibited” and the “percent infection of SARS-CoV-2 pseudovirus particles” value is “reduced percent infection”.

With heparin [reference compound], the “efficiency of inhibition of SARS-CoV-2 compared with SARS-CoV and MERS CoV” value in the test on SARS-CoV-2 pseudovirus is “more efficiently than it does for SARS-CoV and MERS CoV”.

For the origin of these results see patent publication US11518788B2, “Methods and compositions for treating and preventing viral infection” (priority 2020, dated 2022).
